ChEMBL document CHEMBL2321667, “Imidazopyridine-Based Fatty Acid Synthase Inhibitors That Show Anti-HCV Activity and in Vivo Target Modulation” (ACS Med Chem Lett, 2013)

What was measured:
Fatty acid synthase = Fatty acid synthase (Rattus norvegicus, UniProt P12785)
in vitro [1] = details: human, huh-7
Hepatitis C virus = assay: microbe, parasite or virus in culture; details: genotype 1b, Huh-7, 72 h
in vitro [2] = details: dog, MDCK
in vitro [3] = details: plasma

Fatty acid synthase, sequence (P12785 whole entry): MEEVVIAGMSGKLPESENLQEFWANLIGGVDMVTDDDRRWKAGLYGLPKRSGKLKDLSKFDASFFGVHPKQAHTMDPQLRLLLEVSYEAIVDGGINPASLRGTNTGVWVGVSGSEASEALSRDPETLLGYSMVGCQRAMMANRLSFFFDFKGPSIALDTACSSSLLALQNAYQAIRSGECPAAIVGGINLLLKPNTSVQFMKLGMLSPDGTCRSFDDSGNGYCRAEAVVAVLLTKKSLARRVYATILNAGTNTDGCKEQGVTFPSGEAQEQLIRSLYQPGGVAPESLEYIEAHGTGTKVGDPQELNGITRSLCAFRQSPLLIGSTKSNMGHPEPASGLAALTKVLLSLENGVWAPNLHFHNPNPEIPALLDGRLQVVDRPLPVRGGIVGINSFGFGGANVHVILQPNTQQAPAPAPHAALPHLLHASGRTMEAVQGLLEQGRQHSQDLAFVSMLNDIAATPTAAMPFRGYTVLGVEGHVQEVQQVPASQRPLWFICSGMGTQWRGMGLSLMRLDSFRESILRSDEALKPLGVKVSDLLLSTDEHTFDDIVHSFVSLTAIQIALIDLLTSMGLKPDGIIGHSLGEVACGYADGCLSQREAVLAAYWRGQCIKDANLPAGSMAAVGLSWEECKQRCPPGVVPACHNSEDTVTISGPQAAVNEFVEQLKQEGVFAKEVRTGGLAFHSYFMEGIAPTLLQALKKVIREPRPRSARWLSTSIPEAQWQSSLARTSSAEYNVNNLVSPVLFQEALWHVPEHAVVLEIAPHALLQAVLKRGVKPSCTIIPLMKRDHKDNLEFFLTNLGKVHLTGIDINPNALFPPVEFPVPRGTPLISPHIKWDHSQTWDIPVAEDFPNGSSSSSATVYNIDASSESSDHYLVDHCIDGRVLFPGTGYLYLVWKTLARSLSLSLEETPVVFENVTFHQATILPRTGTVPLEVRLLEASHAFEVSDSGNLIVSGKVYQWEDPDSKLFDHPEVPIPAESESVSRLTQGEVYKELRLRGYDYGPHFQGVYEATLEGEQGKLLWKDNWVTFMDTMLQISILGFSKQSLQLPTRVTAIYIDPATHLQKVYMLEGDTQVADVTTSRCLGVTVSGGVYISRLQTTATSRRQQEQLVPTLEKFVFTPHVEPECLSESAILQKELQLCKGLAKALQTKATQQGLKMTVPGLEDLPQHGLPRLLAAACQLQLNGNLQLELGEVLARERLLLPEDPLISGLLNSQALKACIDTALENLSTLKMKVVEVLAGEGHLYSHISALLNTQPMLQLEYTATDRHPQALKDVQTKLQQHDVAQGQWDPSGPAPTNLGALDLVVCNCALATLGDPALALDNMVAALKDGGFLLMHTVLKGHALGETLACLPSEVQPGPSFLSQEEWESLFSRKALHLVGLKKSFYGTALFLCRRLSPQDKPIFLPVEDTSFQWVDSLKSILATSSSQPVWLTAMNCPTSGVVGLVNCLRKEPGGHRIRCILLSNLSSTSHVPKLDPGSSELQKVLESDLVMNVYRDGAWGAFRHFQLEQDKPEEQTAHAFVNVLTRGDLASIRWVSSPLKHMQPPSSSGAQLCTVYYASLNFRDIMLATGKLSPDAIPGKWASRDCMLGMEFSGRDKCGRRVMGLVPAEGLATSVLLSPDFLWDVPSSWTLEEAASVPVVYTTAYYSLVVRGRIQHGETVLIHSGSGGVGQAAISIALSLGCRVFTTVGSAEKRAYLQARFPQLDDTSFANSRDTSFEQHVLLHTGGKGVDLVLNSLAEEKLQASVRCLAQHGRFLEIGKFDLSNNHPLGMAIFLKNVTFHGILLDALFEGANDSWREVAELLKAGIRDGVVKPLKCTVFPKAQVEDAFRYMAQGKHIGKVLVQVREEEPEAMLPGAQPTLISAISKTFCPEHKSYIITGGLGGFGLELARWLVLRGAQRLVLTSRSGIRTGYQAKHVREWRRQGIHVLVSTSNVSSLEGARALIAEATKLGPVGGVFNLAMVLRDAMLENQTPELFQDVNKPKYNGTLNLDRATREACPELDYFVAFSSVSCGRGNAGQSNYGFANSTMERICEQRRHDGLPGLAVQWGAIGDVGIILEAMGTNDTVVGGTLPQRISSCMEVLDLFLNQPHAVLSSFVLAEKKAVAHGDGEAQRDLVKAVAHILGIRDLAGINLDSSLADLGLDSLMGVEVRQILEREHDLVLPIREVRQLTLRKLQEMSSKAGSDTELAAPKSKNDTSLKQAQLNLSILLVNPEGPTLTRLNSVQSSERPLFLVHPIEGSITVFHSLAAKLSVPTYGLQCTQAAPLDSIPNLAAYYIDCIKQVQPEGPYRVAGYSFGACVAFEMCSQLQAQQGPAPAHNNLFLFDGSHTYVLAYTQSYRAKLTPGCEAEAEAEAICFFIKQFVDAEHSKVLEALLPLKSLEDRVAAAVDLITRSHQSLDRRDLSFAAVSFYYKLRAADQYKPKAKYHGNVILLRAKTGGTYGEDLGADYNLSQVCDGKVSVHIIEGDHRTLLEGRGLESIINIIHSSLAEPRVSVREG

Row | SMILES | IC50 (Fatty acid synthase) [µM] | CC50 at 72 h (in vitro [1]) [µM] | EC50 (Hepatitis C virus) [µM] | Papp (in vitro [2]) [×10⁻⁶ cm/s] | half-life (in vitro [3]) [h] | IC50 (Hepatitis C virus) [µM]
1 | Cc1ccc(C(=O)N2CCC(c3ccc(C#N)cc3)CC2)cc1NC(=O)c1ccc(N2CCCC2)nc1 | 3.97 | – | – | – | – | –
2 | COCCN(C)c1cc2nc(-c3cc(C(=O)N4CCC(c5ccc(C#N)cc5)CC4)c(C)cc3C)[nH]c2cn1 | 0.316 | > 20 | 0.084 | – | – | –
3 | Cc1ccc(C(=O)N2CCC(c3ccc(C#N)cc3)CC2)cc1-c1nc2cc(N3CCC3)ncc2[nH]1 | – | > 20 | 0.091 | – | – | –
4 | Cc1cc(C)c(-c2nc3cc(S(C)(=O)=O)cnc3[nH]2)cc1C(=O)N1CCC(c2ccc(C#N)cc2)CC1 | 3.85 | > 20 | 0.13 | – | – | –
5 | Cc1cc(C)c(-c2nc3nc(N4CCC4)ccc3[nH]2)cc1C(=O)N1CCC(c2ccc(C#N)cc2)CC1 | – | > 3 | 0.31 | – | – | –
6 | Cc1ccc(C(=O)N2CCC(c3ccc(C#N)cc3)CC2)cc1-c1nc2cc(N3CCN(C)CC3)ncc2[nH]1 | – | 15 | 0.83 | – | – | –
7 | Cc1cc(C)c(-c2nc3cc(N4CCOCC4)ncc3[nH]2)cc1C(=O)N1CCC(c2ccc(C#N)cc2)CC1 | – | > 3 | 0.04 | – | – | –
8 | Cc1ccc(C(=O)N2CCC(c3ccc(C#N)cc3)CC2)cc1-c1nc2cc(N3CCCC3)ncc2[nH]1 | – | > 20 | 0.175 | 8 | > 10 | –
9 | N#Cc1ccc(C2CCN(C(=O)c3cccc(-c4nc5cc(N6CCCC6)ncc5[nH]4)c3)CC2)cc1 | 2.95 | > 3 | 0.55 | – | – | –
10 | Cc1cc(C(=O)N2CCC(c3ccc(C#N)cc3)CC2)cc(-c2nc3cc(N4CCCC4)ncc3[nH]2)c1 | – | > 10 | > 10 | – | – | –
11 | Cc1ccc(-c2nc3cc(N4CCCC4)ncc3[nH]2)cc1C(=O)N1CCC(c2ccc(C#N)cc2)CC1 | – | 8.6 | 0.15 | – | – | –
12 | Cc1c(C(=O)N2CCC(c3ccc(C#N)cc3)CC2)cccc1-c1nc2cc(N3CCCC3)ncc2[nH]1 | – | 1.9 | > 10 | – | – | –
13 | Cc1ccc(C(=O)N2CCC(c3ccc(C#N)cc3)CC2)cc1-c1nc2ccncc2[nH]1 | > 50 | – | – | – | – | > 50
14 | Cc1ccc(C(=O)N2CCC(c3ccc(C#N)cc3)CC2)cc1-c1nc2ccccc2[nH]1 | > 50 | – | – | – | – | > 50
